The subject of the assay is maximal (tonic hindlimb extension) electroshock seizures in male rats (Sprague Dawley). Nature of the assay: Rat MEST (maximal electroshock seizure threshold) test. It counts as in vivo. The following applies: 2 mg/kg p.o., suspension in methyl cellulose, one hour post dosing, statistically significant. Here is the method:
The maximal electroshock seizure (MEST) threshold test in rodents is particularly sensitive for detecting potential anticonvulsant properties ^1. In this model, anticonvulsant agents elevate the threshold to electrically-induced seizures whilst proconvulsants lower the seizure threshold.
The threshold for maximal (tonic hindlimb extension) electroshock seizures in male rats (Sprague Dawley, 80-150 g, 6 weeks old) was determined by a Hugo Sachs Electronik stimulator which delivered a constant current (0.3 sec duration; from 1-300mA in steps of 5-20mA). The procedure is similar to that outlined above for mouse and full details are as published by Upton et al.^4
The percentage increase or decrease in CC50 for each group compared to the control is calculated.
Drugs are suspended in 1% methyl cellulose.
On the technique in general: Protection in the maximal electroshock model is a classic sign of anticonvulsant action.

Each structure is given as a SMILES string.

`CCOc1cc(C(C)C)c(C(F)(F)F)cc1C(=O)Nc1cccc2c1CCN(C)C2` [Example 11, N-(2-Methyl-1,2,3,4-tetrahydroisoquinolin-5-yl)-2-ethoxy-4-iso-propyl-5-trifluoromethylbenzamide]: the “increase in seizure threshold” value is 92%.

As to `CCOc1cc(OC)c(C(=O)Nc2cccc3c2CCN(C)C3)cc1Br` [Example 17, N-(2-Methyl-1,2,3,4-tetrahydroisoquinolin-5-yl)-5-bromo-4-ethoxy-2-methoxybenzamide], the “increase in seizure threshold” value was 403%.

Consider `COc1cc(OC)c(C(=O)Nc2cccc3c2CCN(C)C3)cc1C#N.Cl` [Example 23, N-(2-Methyl-1,2,3,4-tetrahydroisoquinolin-5-yl)-2,4-dimethoxy-5-cyanobenzamide, hydrochloride], for which the “increase in seizure threshold” value is 107%.

On to `CCOc1cc(C(C)C)c(C#N)cc1C(=O)Nc1cccc2c1CCN(C)C2.Cl` [Example 16, N-(2-Methyl-1,2,3,4-tetrahydroisoquinolin-5-yl)-5-cyano-2-ethoxy-4-iso-propylbenzamide, hydrochloride], for which the “increase in seizure threshold” value is on record as 336%.

On to `COc1cc(C(C)C)c(C#N)cc1C(=O)Nc1cccc2c1CCN(C)C2.Cl` [Example 10, N-(2-Methyl-1,2,3,4-tetrahydroisoquinolin-5-yl)-5-cyano-2-methoxy-4-iso-propylbenzamide, hydrochloride], for which the “increase in seizure threshold” value came to 152%.

For the origin of these results see US20010025045A1, “Substituted isoquinoline derivatives and their use as anticonvulsants” (SmithKline Beecham p.l.c., priority 1997, published 2001).
